Reference: ChEMBL document CHEMBL1155409, “Ultrasmall particle of iron oxide--RGD peptidomimetic conjugate: synthesis and characterisation” (Bioorg Med Chem Lett, 2010)

target: Integrin alpha-V/beta-3 (Homo sapiens); test: Inhibition of human Integrin alphaVbeta3 isolated receptors assessed by standard competitive binding assay

First: NCCOCCOCCOCCOCCOCCOCC(=O)Nc1cc(C[C@H](NS(=O)(=O)c2cccc(C(F)(F)F)c2)C(=O)O)ccc1OCCCc1ccc2c(n1)NCCC2
Second: COCCOCCOCCOCC(=O)Nc1cc(C[C@H](NS(=O)(=O)c2cccc(C(F)(F)F)c2)C(=O)O)ccc1OCCCc1ccc2c(n1)NCCC2
The IC50 of the first is 2.3-fold higher: 0.7 nM for the first, 0.3 nM for the second.

`Nc1cc(C[C@H](NS(=O)(=O)c2cccc(C(F)(F)F)c2)C(=O)O)ccc1OCCCc1ccc2c(n1)NCCC2` gave an IC50 of 0.1 nM.
